US7338950B2, “Amide compounds as ion channel ligands and uses thereof” (Renovis, Inc., priority 2003, dated 2008)

Tested on: VR1 receptor (293 cells expressing capsaicin-insensitive VR1 receptor variants)
Assay: High throughput screening of VR1 antagonists using a calcium imaging assay (Fura2, pH 5.1 stimulus);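 further: Fura2 ratiometric fluorescence read every 4 s over 3 min, response taken as peak ratio minus baseline before pre-treatment, compound pre-treatment preceding acid challenge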
Conditions: 1 uM compound; inhibition of calcium ion influx

Row | SMILES | % Inhibition @ 1 uM
1 | O=C(Nc1ccccc1O)c1ccc(-c2ncccc2Cl)cc1F [Compound 1084] | + (compound exhibited 0-25% inhibition of calcium ion influx induced by capsaicin stimulation)
2 | CN(C)c1cccc(NC(=O)c2ccc(-c3ncccc3Cl)cc2F)c1 [Compound 1086] | + (compound exhibited 0-25% inhibition of calcium ion influx induced by capsaicin stimulation)
3 | O=C(Nc1cccc(Cl)c1)c1ccc(-c2ncccc2Cl)cc1F [Compound 1088] | + (compound exhibited 0-25% inhibition of calcium ion influx induced by capsaicin stimulation)
4 | COc1cccc(NC(=O)c2ccc(-c3ncccc3Cl)cc2F)c1 [Compound 1091] | + (compound exhibited 0-25% inhibition of calcium ion influx induced by capsaicin stimulation)
5 | COc1ccc(NC(=O)c2ccc(-c3ncccc3Cl)cc2F)cc1Cl [Compound 1096] | ++ (compound exhibited 25-50% inhibition of calcium ion influx induced by capsaicin stimulation)
6 | O=C(Nc1cccc(Br)c1)c1ccc(-c2ncccc2Cl)cc1F [Compound 1100] | ++++ (compound exhibited 75% or greater inhibition of calcium ion influx induced by capsaicin stimulation)
7 | N#Cc1cccc(NC(=O)c2ccc(-c3ncccc3Cl)cc2F)c1 [Compound 1101] | ++++ (compound exhibited 75% or greater inhibition of calcium ion influx induced by capsaicin stimulation)
8 | CC(C)(C)c1ccc(NC(=O)c2ccc(-c3ncccc3Cl)cc2F)cc1 [Compound 1103] | + (compound exhibited 0-25% inhibition of calcium ion influx induced by capsaicin stimulation)
9 | Cc1cccnc1NC(=O)c1ccc(-c2ncccc2Cl)cc1F [Compound 1112] | + (compound exhibited 0-25% inhibition of calcium ion influx induced by capsaicin stimulation)
10 | O=C(Nc1ccc(C(F)(F)F)cn1)c1ccc(-c2ncccc2Cl)cc1F [Compound 1114] | + (compound exhibited 0-25% inhibition of calcium ion influx induced by capsaicin stimulation)
11 | O=C(Nc1ncc(C(F)(F)F)cc1Cl)c1ccc(-c2ncccc2Cl)cc1F [Compound 1115] | + (compound exhibited 0-25% inhibition of calcium ion influx induced by capsaicin stimulation)
12 | O=C(Nc1cccnc1Cl)c1ccc(-c2ncccc2Cl)cc1F [Compound 1118] | + (compound exhibited 0-25% inhibition of calcium ion influx induced by capsaicin stimulation)
13 | COc1ccc(NC(=O)c2ccc(-c3ncccc3Cl)cc2F)cn1 [Compound 1120] | + (compound exhibited 0-25% inhibition of calcium ion influx induced by capsaicin stimulation)
14 | Cc1cc(NC(=O)c2ccc(-c3ncccc3Cl)cc2F)nc(C)n1 [Compound 1123] | +++ (compound exhibited 50-75% inhibition of calcium ion influx induced by capsaicin stimulation)
15 | O=C(Nc1ccc2ncccc2c1)c1ccc(-c2ncccc2Cl)cc1F [Compound 1124] | ++ (compound exhibited 25-50% inhibition of calcium ion influx induced by capsaicin stimulation)
16 | O=C(Nc1ccc2ccccc2c1)c1ccc(-c2ncccc2Cl)cc1F [Compound 1126] | ++ (compound exhibited 25-50% inhibition of calcium ion influx induced by capsaicin stimulation)
17 | CC(C)(C)NC(=O)c1ccc(-c2ncccc2Cl)c(F)c1 [Compound 1127] | + (compound exhibited 0-25% inhibition of calcium ion influx induced by capsaicin stimulation)
18 | O=C(Nc1ccc(F)cc1)c1ccc(-c2ncccc2Cl)c(F)c1 [Compound 1131] | + (compound exhibited 0-25% inhibition of calcium ion influx induced by capsaicin stimulation)
19 | O=C(Nc1cccc(Cl)c1)c1ccc(-c2ncccc2Cl)c(F)c1 [Compound 1133] | + (compound exhibited 0-25% inhibition of calcium ion influx induced by capsaicin stimulation)
20 | CCCc1ccccc1NC(=O)c1ccc(-c2ncccc2Cl)c(F)c1 [Compound 1135] | + (compound exhibited 0-25% inhibition of calcium ion influx induced by capsaicin stimulation)
21 | COc1cccc(NC(=O)c2ccc(-c3ncccc3Cl)c(F)c2)c1 [Compound 1136] | + (compound exhibited 0-25% inhibition of calcium ion influx induced by capsaicin stimulation)
22 | O=C(Nc1cccc(Cl)c1Cl)c1ccc(-c2ncccc2Cl)c(F)c1 [Compound 1139] | ++++ (compound exhibited 75% or greater inhibition of calcium ion influx induced by capsaicin stimulation)
23 | N#Cc1cccc(NC(=O)c2ccc(-c3ncccc3Cl)c(F)c2)c1 [Compound 1141] | ++++ (compound exhibited 75% or greater inhibition of calcium ion influx induced by capsaicin stimulation)
24 | CC(C)(C)c1ccc(NC(=O)c2ccc(-c3ncccc3Cl)c(F)c2)cc1 [Compound 1142] | ++++ (compound exhibited 75% or greater inhibition of calcium ion influx induced by capsaicin stimulation)

Row | SMILES | % Inhibition @ 1 uM
25 | CCCCc1ccc(NC(=O)c2ccc(-c3ncccc3Cl)c(F)c2)cc1 [Compound 1144] | ++++ (compound exhibited 75% or greater inhibition of calcium ion influx induced by capsaicin stimulation)
26 | Cc1ccc(NC(=O)c2ccc(-c3ncccc3Cl)c(F)c2)c(C)c1 [Compound 1145] | ++++ (compound exhibited 75% or greater inhibition of calcium ion influx induced by capsaicin stimulation)
27 | O=C(Nc1ccc(F)cc1[N+](=O)[O-])c1ccc(-c2ncccc2Cl)c(F)c1 [Compound 1149] | ++++ (compound exhibited 75% or greater inhibition of calcium ion influx induced by capsaicin stimulation)
28 | COc1ccc(NC(=O)c2ccc(-c3ncccc3Cl)c(F)c2)cc1Cl [Compound 1151] | ++++ (compound exhibited 75% or greater inhibition of calcium ion influx induced by capsaicin stimulation)
29 | O=C(Nc1ccc(C(F)(F)F)cc1)c1ccc(-c2ncccc2Cl)c(F)c1 [Compound 1152] | ++ (compound exhibited 25-50% inhibition of calcium ion influx induced by capsaicin stimulation)
30 | Cc1cc(C)nc(NC(=O)c2ccc(-c3ncccc3Cl)c(F)c2)c1 [Compound 1156] | + (compound exhibited 0-25% inhibition of calcium ion influx induced by capsaicin stimulation)
31 | O=C(Nc1ccncc1)c1ccc(-c2ncccc2Cl)c(F)c1 [Compound 1157] | ++++ (compound exhibited 75% or greater inhibition of calcium ion influx induced by capsaicin stimulation)
32 | Cc1ccnc(NC(=O)c2ccc(-c3ncccc3Cl)c(F)c2)c1 [Compound 1162] | ++++ (compound exhibited 75% or greater inhibition of calcium ion influx induced by capsaicin stimulation)
33 | O=C(Nc1ccc(C(F)(F)F)cn1)c1ccc(-c2ncccc2Cl)c(F)c1 [Compound 1166] | ++ (compound exhibited 25-50% inhibition of calcium ion influx induced by capsaicin stimulation)
34 | O=C(Nc1ccc(Cl)nc1)c1ccc(-c2ncccc2Cl)c(F)c1 [Compound 1169] | + (compound exhibited 0-25% inhibition of calcium ion influx induced by capsaicin stimulation)
35 | COc1ccc(NC(=O)c2ccc(-c3ncccc3Cl)c(F)c2)cn1 [Compound 1170] | ++ (compound exhibited 25-50% inhibition of calcium ion influx induced by capsaicin stimulation)
36 | O=C(Nc1ccc2ncccc2c1)c1ccc(-c2ncccc2Cl)c(F)c1 [Compound 1173] | ++++ (compound exhibited 75% or greater inhibition of calcium ion influx induced by capsaicin stimulation)
37 | O=C(Nc1cc[nH]n1)c1ccc(-c2ncccc2Cl)c(F)c1 [Compound 1175] | + (compound exhibited 0-25% inhibition of calcium ion influx induced by capsaicin stimulation)
38 | O=C(Nc1ccc2ccccc2c1)c1ccc(-c2ncccc2Cl)c(F)c1 [Compound 1177] | ++++ (compound exhibited 75% or greater inhibition of calcium ion influx induced by capsaicin stimulation)
39 | O=C(O)c1cccc(NC(=O)c2ccc(-c3ncccc3Cl)c(F)c2)c1 [Compound 1182] | + (compound exhibited 0-25% inhibition of calcium ion influx induced by capsaicin stimulation)
40 | O=C(Nc1ccc(Cl)c(C(=O)O)c1)c1ccc(-c2ncccc2Cl)c(F)c1 [Compound 1183] | ++++ (compound exhibited 75% or greater inhibition of calcium ion influx induced by capsaicin stimulation)
41 | COc1ccc(NC(=O)c2ccc(-c3ncccc3Cl)c(F)c2)cc1O [Compound 1187] | ++ (compound exhibited 25-50% inhibition of calcium ion influx induced by capsaicin stimulation)
42 | O=C(Nc1ccc2cn[nH]c2c1)c1ccc(-c2ncccc2Cl)c(F)c1 [Compound 1189] | +++ (compound exhibited 50-75% inhibition of calcium ion influx induced by capsaicin stimulation)
43 | CCCOc1ccc(NC(=O)c2ccc(-c3ncccc3Cl)c(F)c2)cc1 [Compound 1190] | ++ (compound exhibited 25-50% inhibition of calcium ion influx induced by capsaicin stimulation)
44 | O=C(Nc1ccc(OC(F)(F)F)cc1)c1ccc(-c2ncccc2Cl)c(F)c1 [Compound 1192] | ++ (compound exhibited 25-50% inhibition of calcium ion influx induced by capsaicin stimulation)
45 | O=C(Nc1cccc(OC(F)(F)F)c1)c1ccc(-c2ncccc2Cl)c(F)c1 [Compound 1193] | + (compound exhibited 0-25% inhibition of calcium ion influx induced by capsaicin stimulation)
46 | CC(C)Oc1cccc(NC(=O)c2ccc(-c3ncccc3Cl)c(F)c2)c1 [Compound 1194] | + (compound exhibited 0-25% inhibition of calcium ion influx induced by capsaicin stimulation)
47 | O=C(Nc1ccc(F)c(F)c1)c1ccc(-c2ncccc2Cl)c(F)c1 [Compound 1195] | +++ (compound exhibited 50-75% inhibition of calcium ion influx induced by capsaicin stimulation)
